Experimental data taken from patent US9353051B2, “Antiviral drugs for treatment or prevention of dengue infection” (Siga Technologies Inc., priority 2007, dated 2016).
Read-outs that look alike come from different tables or passages of the source.

Experiments:
dengue [1] = settings: cited from earlier work
dengue [2] = settings: mouse model; cited from earlier work
Modoc = experiment: specificity: activity against Modoc; type: cell-based, murine flavivirus; settings: Orthoflavivirus, in Mus musculus
Procedure: (§1) Select compounds were also tested for more broad spectrum activity against other members of the Flaviviridae family including Modoc, which is a murine flavivirus, as well as Bovine Viral Diarrhea Virus (BVDV), which is a Pestivirus. Since dengue virus is able to replicate in multiple cell lines and to ensure that the activity seen in vero cells is consistent, select compounds were also tested for their effective concentration in a viral yield assay against dengue-2 in C6/36 mosquito cells.

Den-1 = experiment: viral yield assay against Den-1; type: cell-based; settings: Dengue virus
Den-4 = experiment: viral yield assay against Den-4; type: cell-based; settings: Dengue virus
[3] = tested on: Bovine Viral Diarrhea Virus (BVDV); experiment: specificity: activity against BVDV; type: cell-based; settings: Bovine viral diarrhea virus isolates and strains, read-out: Specificity BVDV
Procedure: as §1

[4] = tested on: dengue-2 in C6/36 mosquito cells; experiment: viral yield assay against dengue-2 in C6/36 mosquito cells; type: cell-based; settings: Dengue virus, dengue-2, C6/36 mosquito cells, read-out: Specificity C6/36
Procedure: as §1

[5] = tested on: Dengue-2 (Strain New Guinea C); experiment: viral yield assay against Dengue-2 in Vero cells; type: cell-based; settings: Dengue virus, Vero cells; for EC90: read-out: EC90 Yield Den-2
In short: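 Vero cells infected with dengue-2 at MOI 0.1 were treated with compound (DMSO control) at 37° C., harvested 48 h post infection and titered on Vero cells.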

Den-3 = experiment: viral yield assay against Den-3; type: cell-based; settings: Dengue virus
[6] = MOI 0.1, harvested 48 hours post infection, read-out: Activity (anti-dengue 2 viral activity, EC50)
[7] = viral yield assay, read-out: EC50 Yield Den-2

Structure (SMILES) | adverse effects induced (dengue [1]; animal models of dengue (mouse or rhesus monkey, not specified)) | protection against dengue (dengue [1]; rhesus monkey model) | protection against dengue (dengue [2]) | EC50 (Modoc) [µM] | EC50 (Den-1) [µM] | EC90 (Den-1) [µM] | EC50 (Den-4) [µM] | EC90 (Den-4) [µM] | EC50 [3] [µM] | EC50 [4] [µM] | EC50 [5, 6] [µM] | EC50 [5, 7] [µM] | EC90 ([5]; viral yield assay) [µM] | EC50 (Den-3) [µM] | EC90 (Den-3) [µM]
NC(=O)c1ncn([C@@H]2O[C@H](CO)[C@@H](O)[C@H]2O)n1 [ribavirin] | induced anemia and thrombocytosis | did not show protection | did not show protection |  |  |  |  |  |  |  |  |  |  |  | 
CCN(CC)S(=O)(=O)c1ccc(NC(=O)Cn2cnc3ccccc3c2=O)cc1 [Compound 1, N-(4-Diethylsulfamoyl-phenyl)-2-(4-oxo-4H-quinazolin-3-yl)-acetamide] |  |  |  | 1.2 | 4.3 | 10.7 | 1.7 | 4.1 | > 50 | 0.3 | < 1 | 0.3 | 5.2 | 1 | 8.2
CCN(CC)S(=O)(=O)c1ccc(OC)c(NC(=O)C(C)C)c1 [Compound 2, N-(5-Diethylsulfamoyl-2-methoxy-phenyl)-isobutyramide] |  |  |  | 6.2 | 7.6 | 8.9 | 2.1 | 12.5 | > 50 | 0.7 | < 1 | 0.3 | 4.1 | 5.5 | 13.3
CCN(CC)S(=O)(=O)c1ccc(NC(=O)Cn2nnc3ccccc3c2=O)cc1 [Compound 3, N-(4-Diethylsulfamoyl-phenyl)-2-(4-oxo-4H-benzo[d][1,2,3]triazin-3-yl)-acetamide] |  |  |  | 3.1 | 1.3 | 5.1 | 2.3 | 10 | > 50 |  | 1 to 10 | 4 | 10 | 1 | 12.1
CCN(CC)S(=O)(=O)c1ccc(OC)c(NC(=O)Cn2cnc3c2c(=O)n(C)c(=O)n3C)c1 [Compound 13, N-(5-Diethylsulfamoyl-2-methoxy-phenyl)-2-(1,3-dimethyl-2,6-dioxo-1,2,3,6-tetrahydro-purin-7-yl)-acetamide] |  |  |  | > 25 | 7.1 | 8.5 | 1.9 | 9.2 | 47.7 | 2.1 | 1 to 10 | 2.4 | 10.3 | 4.1 | 9.4
